In patent US9701660B2, “2,6-diaminopyridine compounds suitable for treating diseases associated with amyloid or amyloid-like proteins or for treating or preventing ocular diseases or conditions associated with a pathological abnormality/change in the tissue of the visual system” (AC Immune S.A., priority 2009, dated 2017):
Values joined by “and” are separate entries in the source; they are usually repeats but may differ in a detail not shown here. Equal values may be shown once.

Tests used:
[1] = Aqueous solubility in PBS (HPLC); assay type: physicochemical; settings: for solubility at 24 h: PBS 1x, 24 hours at room temperature; for solubility in words, compared to compound 1: comparison
Method: Method for measuring the solubility:
• Plate shaker, Centrifuge (Eppendorf, 8 cm radius), HPLC (Dionex P580), Column: Agilent Zorbax Eclipse XDB-C18 rapid resolution (4.6×50 mm, […], Agilent), Uncoloured microtubes 1.5 mL (Eppendorf, 1.5 mL), Micropipettes […], Micropipettes […], Dulbecco's phosphate buffer, DMSO, ammonium formate, formic acid 98-100%, UP-H2O, acetonitrile HPLC grade, methanol GR analysis, PVDF membrane filter. 2. Method 2.1 Preparation of PBS 5× (Stored at 4° C.) and PBS1× for Analysis • PBS 5× • Dissolved the full content of PBS salt (D-5652-10L) in 2 L of UP-H2O. • PBS1× • Before analysis, dilute 5 fold the PBS 5× in order to prepare 30 mL of PBS1× and filter the solution using a syringe and any hydrophilic membrane e.g. PVDF membrane. 2.2 Preparation of HPLC Solvent (Stored at RT) • Solvent A: 13.3 mM ammonium formate/6.5 mM formic acid/UP-water
Dissolve 820±1 mg of ammonium formate and 245 μL of formic acid in 1000 mL of UP-H2O. • Solvent B: 6.0 mM ammonium formate/2.9 mM formic acid/90% acetonitrile/10% UP-water • Dissolve 378±1 mg of ammonium formate and 110 μL of formic acid in 900 mL acetonitrile and 100 mL of UP-H2O. 2.3 Preparation of the Stock Solution of the Compound • Dissolve compound in DMSO at a concentration of 25 mM (minimum […]). 2.4 Preparation of Standard Curve • Prepare 15 mL of methanol/H2O (6/4). • Prepare 5 standard calibrators: 250 μM, 200 μM, 50 μM, 12.5 μM and 3.13 μM in methanol/H2O (6/4). • Make preparations of each standard concentration in 1.5 microtubes.
• Transfer directly 250-300 μL from each microtube to an HPLC vial. • Run HPLC (from microtubes #6 to #1), using the following conditions:
C18 column, 0.7 mL/min, 20° C., UV detection at 254 nm, volume injection: 20 μL and one of the following gradients: […]
2.5. Preparation of the Sample for Aqueous Solubility • Prepare Samples of the Compound in Triplicates
• Shake it gently (350 rpm) for 24 hours at room temperature. • After the incubation time, centrifuge at 2500 g (5500 rpm) for 30 min. • Sample 200 μL of supernatant for HPLC analysis using the same conditions described in 2.4. 2.6. Data Treatment • Integrate area of each standard point peak at 254 nm. • Determine the standard curve for the compound by plotting the area vs. the theoretical concentration. Establish the standard curve equation based on a linear regression (with an intercept at 0, R^2≧0.90). y(area)=slope×x(concentration) • Calculate the average area of each triplicate prepared in aqueous phase.
The concentration of the compound in the supernatant is determined by the following formula: […]
The solubility of the compound is determined by the following formula: […]

[2] = target: T1, amyloid beta (Ab) 1-42 peptide (Homo sapiens, UniProt P05067); experiment: Inhibition of amyloid beta (Ab) 1-42 peptide aggregation (thioflavin T spectrofluorescence assay); assay type: biochemical; settings: for biological activity (ThT assay) in words, compared to compound 1 / compounds according to the invention: comparison; for ThT assay at 330 mM % inhib.: small molecule to Ab1-42 10:1, 24 hrs at 37° C.; for inhibition at 330 µM: mean of the two ThT assays at 330 µM, read-out: Mean % inhib.
T1 construct: amyloid beta (Ab) 1-42 peptide; purchased Bachem
Method: A number of small molecules were tested for their capacity to inhibit the aggregation of amyloid beta (Ab) 1-42 peptide using a thioflavin T spectrofluorescence assay.
Ab1-42 lyophilized powder (Bachem) was reconstituted in hexafluoroisopropanol (HFIP) to 1 mM. The peptide solution was sonicated for 15 min at room temperature, agitated overnight, and aliquots were placed in non-siliconized microcentrifuge tubes. The HFIP was then evaporated under a stream of argon. The resulting peptide film was dried under vacuum for 10 min, tightly sealed and stored at −80° C. until used.
Ab1-42 peptide film was dissolved in DMSO to reach 400 μM. Assay solution in PBS buffer was prepared in non-siliconized incubation tubes to reach the following concentrations: […] Ab1-42, 10 μM thioflavin T (ThT), and 12.8% DMSO. Therefore, the final molar ratio of small molecule to Ab1-42 was 10:1. A positive control without a small molecule was prepared to measure maximum RFU. A negative control without Ab1-42 was prepared for each small molecule. 3-Aminopyrazole trimer (Trimer) was tested in all assays to ascertain reproducibility between independent experiments. The solutions were incubated for 24 hrs at 37° C., and the spectrofluorescence (relative fluorescence units; RFU) read in six replicates in black 384-well assay plates (Perkin-Elmer) on a Perkin-Elmer FluoroCount spectrofluorometer. Inhibition of aggregation is expressed as mean % inhibition or ±1 standard deviation (SD) according to the following equation: % inhibition=(RFU of positive control−RFU of negative control)−(RFU of sample with Aβ-42−RFU of sample without Aβ1-42)×100 • (RFU of positive control−RFU of negative control)
Cut-off criteria for selection of functional molecules were defined at 50% inhibition capacity. Molecules showing an inhibition capacity over 70% were considered as very strong candidates.

[3] = target: T1, amyloid beta (Ab) 1-42 peptide; experiment: as above; assay type: biochemical; settings: mean of 2 experiments; Ab1-42 aggregation, 24 hrs at 37° C.; read-out: IC50 ThT-assay
[4] = test system: retinal ganglion cells (RGCs); experiment: Rat model of chronic ocular hypertension (OHT)/glaucoma; assay type: in vivo, Dark Agouti rats; settings: for number of viable RGCs: 3 weeks after intra-vitreal injection in the OHT eye, in comparison to the control group, p<0.001; for reduction of intraocular pressure: at 3 weeks, Tonopen
Method: A rat model of chronic ocular hypertension (OHT)/glaucoma was created by injecting hypertonic saline into the episcleral veins of one eye of Dark Agouti rats. 18 rats received an intra-vitreal injection containing a volume of 5 μL of compound 1 (ACI-260) at a concentration of 74 mg/L in the OHT eye. 18 rats served as negative control and received 5 μl of saline and 18 rats served as positive control and received 6 μL Congo Red (1.46 mg/mL). 6 animals/timepoint were euthanized at 3, 8 and 16 weeks after treatment.
Intraocular pressure (IOP) was measured using a Tonopen once every 4 weeks post dosing and prior to sacrifice (within 3 days). 5 to 7 days prior to sacrifice, animals were injected intra-cerebrally with 5 μL of 4% FluoroGold to label the retinal ganglion cells (RGCs). In order to quantify viable RGCs, images were processed using a specific system of image analysis software and viable RGCs were expressed per square millimeter.

[5] = PBS 1x (Dulbecco's phosphate buffer), aqueous buffer, kinetic from dmso stock, table with % inhib.
[6] = PBS 1x (Dulbecco's phosphate buffer), aqueous buffer, kinetic from dmso stock, table with IC50

T1 sequence (P05067 672-713 limits assumed): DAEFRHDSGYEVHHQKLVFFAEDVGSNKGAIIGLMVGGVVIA

Structure (SMILES) | solubility at 24 h [1, 5] | biological activity (ThT assay) in words, compared to compound 1 / compounds according to the invention [2] | ThT assay at 330 mM % inhib. ([2]; experiment 1) | ThT assay at 330 mM % inhib. ([2]; experiment 2) | IC50 [3] | solubility in words, compared to compound 1 [1] | also measured
CNc1cccc(CCNc2cccc(NC)n2)n1 [Compound 7] | 50 µg/mL | significantly reduced activity | 77.6% | 70.3% | – | – | solubility at 24 h ([1]; table with % inhib.): 195 µM; inhibition at 330 µM [2]: 74%
CNc1cccc(CCNc2cccc(CCN(c3ccccn3)c3ccccn3)n2)n1 [Compound 13] | – | – | – | – | 298 µM | – | –
CNc1cccc(NCCc2cccc(NCCc3ccccn3)n2)n1 [Compound 1] | – | – | 88.8% | 79.6% | 25.5 µM | – | solubility at 24 h [1, 6]: 857 µM and 298 µg/mL; number of viable RGCs [4]: significantly increased; reduction of intraocular pressure [4]: not observed
c1ccc(CCNc2cccc(NCCc3ccc4c(n3)NCCC4)n2)nc1 [Compound 9] | 154 µM and 57 µg/mL | comparable activity to compound 1 | 91.8% | 93.4% | – | worse | –
CNc1cccc(NCCc2cccc(NCc3ccccn3)n2)n1 [Compound 2] | – | – | – | – | 12.9 µM | – | –
Nc1c(/N=N/c2ccc(-c3ccc(/N=N/c4cc(S(=O)(=O)O)c5ccccc5c4N)cc3)cc2)cc(S(=O)(=O)O)c2ccccc12 [Congo Red, reference compound] | – | – | – | – | – | – | number of viable RGCs [4]: significantly increased; reduction of intraocular pressure [4]: not observed
CNc1cccc(NCCc2ccccn2)n1 [Compound 6] | – | significantly reduced activity | 68.4% | 59.0% | – | – | inhibition at 330 µM [2]: 63.7%
FC(F)(CNc1cccc(NCC(F)(F)c2ccc3c(n2)NCCC3)n1)c1ccccn1 [Compound 12] | 21.5 µM and 9.5 µg/mL | worse | 56.4% | 63.7% | – | worse | –
FC(F)(CNc1cccc(NCCc2ccccn2)n1)c1ccc2c(n1)NCCC2 [Compound 10] | – | comparable activity to compound 1 | 89.6% | 77.6% | – | worse | –

The next lines start with results.

solubility at 24 h [1, 5] | biological activity (ThT assay) in words, compared to compound 1 / compounds according to the invention [2] | ThT assay at 330 mM % inhib. ([2]; experiment 1) | ThT assay at 330 mM % inhib. ([2]; experiment 2) | IC50 [3] | solubility in words, compared to compound 1 [1] | Structure (SMILES) | also measured
– | – | – | – | 35.3 µM | – | CNc1cccc(CCNc2cccc(NCCc3ccccn3)n2)n1 [Compound 3] | solubility at 24 h [1, 6]: 206 µM and 71 µg/mL
1 µM and 0.4 µg/mL | – | 73.3% | 80.7% | – | significantly worse | CCCNc1ccc(NCc2ccc(NCc3ccc(NCCC)nc3)nc2)nc1 [Compound 8, reference compound] | –
119 µM and 48 µg/mL | comparable activity to compound 1 | 95.3% | 94.4% | – | worse | FC(F)(CNc1cccc(NCCc2ccc3c(n2)NCCC3)n1)c1ccccn1 [Compound 11] | –
– | significantly decreased | – | – | 140 µM | – | CNc1cccc(CCNc2cccc(CCNc3ccccn3)n2)n1 [Compound 5] | –
– | – | – | – | 16.5 µM | – | CNc1cccc(NCCCc2cccc(NCCCc3ccccn3)n2)n1 [Compound 4] | solubility at 24 h [1, 6]: 38 µg/mL; solubility at 24 h ([1]; table with IC50): 103 µM
